Test systems include SF-295 CNS; SW-620 colon; UACC-62 melanoma; HL-60(TB) leukemia; SF-539 CNS; MOLT-4 leukemia; SNB-75 CNS; HCT-116 colon; T-47D breast; UACC-257 melanoma.
Holding throughout (test): NCI tumour cell line growth inhibition, 48 h

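Each compound was tested at five concentrations against cells in 96-well plates for 48 hours. GI50 = concentration required for 50% inhibition of growth. TGI denotes the concentration required for complete inhibition of growth.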 Some results are limits rather than exact numbers.

For `CCC(c1ccc(OC)cc1)C(CC)c1ccc(O)c(CN2CCCC2)c1` (centres undefined), the GI50 with SF-295 CNS was 2.12 µM; in the test on SW-620 colon it was 2.99 µM; in the test with UACC-62 melanoma, 2.07 µM; in the test with HL-60(TB) leukemia, 2.14 µM; with SF-539 CNS, 4.16 µM; in the test on MOLT-4 leukemia, 2.54 µM. In addition, the GI50 is 3.28 µM with SNB-75 CNS, 3.44 µM with HCT-116 colon, 2.1 µM in the test with T-47D breast and 2.1 µM in the test on UACC-257 melanoma. Also, the TGI with SF-295 CNS stood at 4.85 µM; in the test with SW-620 colon, 9.07 µM; in the test with UACC-62 melanoma it was 4.97 µM; with HL-60(TB) leukemia it was 4.76 µM; with SF-539 CNS it was 15.6 µM; in the test on MOLT-4 leukemia, 6.77 µM. In addition, the TGI with SNB-75 CNS was found to be 15.5 µM; in the test with HCT-116 colon it was 12.5 µM; with T-47D breast, 6.4 µM; in the test on UACC-257 melanoma, 4.7 µM.

On to `O=C1/C(=C/c2ccccc2)CN(CCC(=O)N2C/C(=C\c3ccccc3)C(=O)/C(=C/c3ccccc3)C2)C/C1=C\c1ccccc1`, for which the GI50 in the test on SF-295 CNS was 14.2 µM; in the test on SW-620 colon, 0.495 µM; with UACC-62 melanoma, 7.19 µM; with HL-60(TB) leukemia, 13.7 µM; in the test with SF-539 CNS, 13.9 µM; in the test with MOLT-4 leukemia it was 2.6 µM. Besides, the GI50 in the test on SNB-75 CNS is 10.7 µM; in the test with HCT-116 colon, 0.346 µM; in the test with T-47D breast, 13.5 µM; in the test on UACC-257 melanoma, 24.6 µM. For the same compound, the TGI is 30 µM in the test on SF-295 CNS; 49.8 µM in the test with SW-620 colon; 33.9 µM in the test with UACC-62 melanoma; above 100 µM with HL-60(TB) leukemia; 50.6 µM with SF-539 CNS; above 100 µM with MOLT-4 leukemia. Also, the TGI with SNB-75 CNS is 35.3 µM; with HCT-116 colon, 4.17 µM; in the test with T-47D breast, 75.3 µM; with UACC-257 melanoma, above 100 µM.

`NC(=O)c1cc(Cl)ccc1NC(=O)c1ccccc1-c1ccccc1`: the GI50 is 0.347 µM in the test on SF-295 CNS; 0.412 µM with SW-620 colon; 0.836 µM with UACC-62 melanoma; 0.284 µM in the test with HL-60(TB) leukemia; 0.319 µM with SF-539 CNS; 0.743 µM with MOLT-4 leukemia. Besides, the GI50 is 0.273 µM in the test on SNB-75 CNS, 0.43 µM in the test on HCT-116 colon, 1.74 µM in the test on T-47D breast and 12.8 µM in the test on UACC-257 melanoma. In addition, the TGI in the test with SF-295 CNS is 15.9 µM; in the test on SW-620 colon, above 100 µM; in the test with UACC-62 melanoma, 25.3 µM; in the test on HL-60(TB) leukemia, 20.4 µM; in the test on SF-539 CNS, 1.89 µM; in the test with MOLT-4 leukemia it was above 100 µM. In addition, the TGI with SNB-75 CNS came out at 3.2 µM; in the test with HCT-116 colon it was 65.1 µM; in the test with T-47D breast, 64.4 µM; in the test on UACC-257 melanoma it was 73.2 µM.

Consider `C[C@@H](Oc1cc(NS(=O)(=O)N2CCC2)nc(SCc2cccc(F)c2F)n1)[C@@H](O)CO`, for which the GI50 with SF-295 CNS, in the test on SW-620 colon, in the test on UACC-62 melanoma, in the test on HL-60(TB) leukemia, in the test with SF-539 CNS and in the test on MOLT-4 leukemia was above 100 µM each time. Also, the GI50 in the test with SNB-75 CNS, in the test on HCT-116 colon, in the test with T-47D breast and in the test on UACC-257 melanoma was above 100 µM throughout. Further, the TGI with SF-295 CNS, in the test with SW-620 colon, with UACC-62 melanoma, in the test on HL-60(TB) leukemia, in the test with SF-539 CNS and in the test with MOLT-4 leukemia was above 100 µM in each case. Besides, the TGI with SNB-75 CNS, in the test with HCT-116 colon, with T-47D breast and in the test on UACC-257 melanoma was above 100 µM throughout.

As to `CN(C1=NS(=O)(=O)N=C(N(C)c2ccccc2)O1)c1ccccc1`, the TGI is 57.7 µM in the test on SF-295 CNS; 30.3 µM in the test on SW-620 colon; 28 µM in the test on UACC-62 melanoma; 33.7 µM in the test with HL-60(TB) leukemia; 39.3 µM in the test on SF-539 CNS; above 100 µM with MOLT-4 leukemia. Further, the TGI was determined as 34.5 µM with SNB-75 CNS, 27.6 µM with HCT-116 colon, 45.5 µM in the test with T-47D breast and 57.4 µM in the test on UACC-257 melanoma.

Regarding `CCOC(=O)C#Cc1ccc([N+](=O)[O-])cc1`, the TGI in the test with SF-295 CNS turned out to be 25.6 µM; in the test on SW-620 colon, 7.43 µM; in the test on UACC-62 melanoma, 4.05 µM; with HL-60(TB) leukemia it was 4.1 µM; in the test on SF-539 CNS, 6.69 µM; with MOLT-4 leukemia, 5.22 µM. Moreover, the TGI in the test on SNB-75 CNS worked out at 7.88 µM; in the test on HCT-116 colon, 3.03 µM; with T-47D breast it was 4.05 µM; in the test with UACC-257 melanoma it was 10.8 µM.

For `CCC1CCCCN1C(=S)N/N=C(\C)c1ccccn1` (centres undefined), the GI50 in the test on SF-295 CNS is 0.0296 µM; with SW-620 colon, 0.0463 µM; with UACC-62 melanoma it was 0.123 µM; in the test on HL-60(TB) leukemia it was 0.0429 µM; with SF-539 CNS, 0.171 µM; with MOLT-4 leukemia, 0.0982 µM. The GI50 is 0.479 µM in the test with SNB-75 CNS, below 0.0146 µM in the test on T-47D breast and below 0.0215 µM with UACC-257 melanoma. For the same compound, the TGI in the test on SF-295 CNS was 2.81 µM; in the test with SW-620 colon it was 2.76 µM; with UACC-62 melanoma, 1.92 µM; with HL-60(TB) leukemia, 3.91 µM; in the test with SF-539 CNS it was 2.45 µM; in the test on MOLT-4 leukemia, above 20.7 µM. Besides, the TGI with SNB-75 CNS turned out to be 2.12 µM; in the test with HCT-116 colon it was 3.49 µM; with T-47D breast, 1.63 µM; in the test with UACC-257 melanoma it was 1.68 µM.

For `CN(C)CCCN=c1cc2c(=O)n(CCCN(C)C)c(=O)c3c(NCCCN(C)C)cc4c(O)n(CCCN(C)C)c(=O)c1c4c3-2`, the GI50 in the test with SF-295 CNS is 1.1 µM; in the test with SW-620 colon, 0.79 µM; in the test on UACC-62 melanoma, 1.75 µM; in the test on HL-60(TB) leukemia, 15.1 µM; with SF-539 CNS it was 2.33 µM; in the test with MOLT-4 leukemia, 7.11 µM. Also, the GI50 in the test on SNB-75 CNS was 1.25 µM; in the test on HCT-116 colon, 0.582 µM; in the test on T-47D breast, 2.35 µM; with UACC-257 melanoma it was 2.19 µM. Also, the TGI with SF-295 CNS was 9 µM; in the test on SW-620 colon, 15.6 µM; with UACC-62 melanoma it was 4.86 µM; in the test on HL-60(TB) leukemia it was 60.5 µM; in the test with SF-539 CNS, 11 µM; in the test with MOLT-4 leukemia, 98.8 µM. Besides, the TGI in the test on SNB-75 CNS stood at 3.68 µM; in the test with HCT-116 colon it was 5.52 µM; in the test with T-47D breast it was 16.9 µM; with UACC-257 melanoma it was 7.35 µM.

On to `CC(=O)Nc1ccc2oc(=O)c3ccccc3c2c1`, for which the TGI in the test with SF-295 CNS, with SW-620 colon, with UACC-62 melanoma, in the test with HL-60(TB) leukemia, in the test on SF-539 CNS and with MOLT-4 leukemia was above 100 µM in each case. For the same compound, the TGI with SNB-75 CNS, with HCT-116 colon, in the test with T-47D breast and in the test on UACC-257 melanoma was above 100 µM in each case.

On to `O=C1CCC2=C3C4CCCCC4C(=O)C4CCCC(OC2C1)C34` (centres undefined), for which the GI50 is 2.49 µM in the test with SF-295 CNS; 0.394 µM in the test with SW-620 colon; 1.69 µM in the test on UACC-62 melanoma; 0.17 µM in the test on HL-60(TB) leukemia; 2.44 µM in the test with SF-539 CNS; 0.457 µM with MOLT-4 leukemia. Further, the GI50 in the test with SNB-75 CNS was 5.23 µM; with HCT-116 colon, 0.316 µM; with T-47D breast, 3.58 µM; with UACC-257 melanoma, 1.65 µM. The TGI with SF-295 CNS was 15.5 µM; in the test on SW-620 colon, 3.13 µM; in the test on UACC-62 melanoma, 4.32 µM; in the test with HL-60(TB) leukemia, 0.998 µM; with SF-539 CNS, above 100 µM; in the test on MOLT-4 leukemia, 5.66 µM. In addition, the TGI with SNB-75 CNS was above 43.8 µM; with HCT-116 colon it was above 31.1 µM; with T-47D breast, above 100 µM; in the test with UACC-257 melanoma, 4.93 µM.

Regarding `C#Cc1cccc(Nc2ncnc3ccc(-c4cnc(Cl)c(NS(C)(=O)=O)c4)cc23)c1`, the GI50 with SF-295 CNS was 0.376 µM; with SW-620 colon, 0.467 µM; in the test with UACC-62 melanoma, 0.149 µM; in the test with HL-60(TB) leukemia, 0.207 µM; with SF-539 CNS, 0.302 µM; with MOLT-4 leukemia it was 0.244 µM. Also, the GI50 with SNB-75 CNS is 0.0101 µM; with HCT-116 colon, 0.4 µM; with T-47D breast, 0.046 µM; in the test with UACC-257 melanoma it was 0.307 µM. For the same compound, the TGI with SF-295 CNS was 2.17 µM; in the test with SW-620 colon, 5.65 µM; in the test on UACC-62 melanoma it was 1.07 µM; in the test with HL-60(TB) leukemia, 1.27 µM; in the test with SF-539 CNS, 1.68 µM; in the test with MOLT-4 leukemia it was 1.53 µM. Further, the TGI in the test on SNB-75 CNS came to 0.125 µM; in the test with HCT-116 colon it was 3.15 µM; in the test on T-47D breast it was 1.2 µM; in the test with UACC-257 melanoma it was 6.57 µM.

`O=C(O[C@H]1CN[C@H](C#Cc2cc3ncnc(Nc4ccc(OCc5cccc(F)c5)c(Cl)c4)c3s2)C1)N1CCOCC1`: the GI50 was 9 µM with SF-295 CNS; 12.2 µM in the test with SW-620 colon; 13.4 µM in the test on UACC-62 melanoma; 6.11 µM in the test on HL-60(TB) leukemia; 5.09 µM in the test on SF-539 CNS; 6 µM in the test with MOLT-4 leukemia. The GI50 in the test with SNB-75 CNS was 7.73 µM; with HCT-116 colon, 7.99 µM; in the test on T-47D breast it was 1.55 µM; with UACC-257 melanoma, above 19.1 µM. Further, the TGI was above 25 µM with SF-295 CNS; above 25 µM with SW-620 colon; above 25 µM in the test on UACC-62 melanoma; 15.1 µM in the test with HL-60(TB) leukemia; 12 µM in the test with SF-539 CNS; 23.2 µM in the test with MOLT-4 leukemia. The TGI in the test on SNB-75 CNS, with HCT-116 colon, with T-47D breast and in the test with UACC-257 melanoma was above 25 µM throughout.

The values are drawn from PubChem BioAssay (NCI).
